Measured values: patent US20250243190A1, “NEW DEUTERATED RORGAMMA/RORGAMMAT INVERSE AGONISTS” (IMMUNIC AG, priority 2022, published 2025)

What was measured:
[1] = Microsomal stability, human liver microsomes; details: both
Method: The conversion to the metabolite was monitored by HPLC-MS/MS. Verapamil served as positive control.
(§1) The metabolism was monitored by HPLC-MS/MS. Verapamil served as positive control. The intrinsic clearance was calculated from the measured remaining compound values.
as §1

RORγt = target: T1, RORγt (Homo sapiens, UniProt P51449); assay: Indigo Biosciences Human RAR-related Orphan Receptor, Gamma Reporter Assay (in vitro inhibition of RORγt); type: cell-based; details: RORγt reporter cells, luciferase readout, 22-24 h incubation; read-out: IC50 range
T1 sequence (P51449 269-508 limits assumed): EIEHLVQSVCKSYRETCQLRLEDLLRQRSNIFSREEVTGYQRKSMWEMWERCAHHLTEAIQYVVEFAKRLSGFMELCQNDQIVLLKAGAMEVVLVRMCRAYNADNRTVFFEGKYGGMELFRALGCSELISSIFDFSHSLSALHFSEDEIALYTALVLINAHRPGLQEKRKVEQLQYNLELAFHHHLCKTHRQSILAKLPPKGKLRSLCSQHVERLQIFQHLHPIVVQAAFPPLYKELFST
Method: The in vitro inhibition of RORγt was measured using Indigo Biosciences Human RAR-related Orphan Receptor, Gamma Reporter Assay System (Product #IB304001-32) as described in the technical manual. In brief, 200 μL of Reporter Cells is dispensed into wells of the assay plate and preincubated for 4-6 h. Following the pre-incubation period, culture media are discarded and 200 µL/well of the prepared 1×-concentration treatment media are added. Following 22-24 h incubation, treatment media are discarded and Luciferase Detection Reagent is added. The intensity of light emission (in units of ‘Relative Light Units’; RLU) from each assay well is quantified using a plate-reading luminometer. Average values of RLU were determined for each treatment concentration. Non-linear regression analyses were performed and IC50 values determined using GraphPad Prism software. Provided inverse-agonists ursolic acid served as positive control.

[2] = Cell viability assay accompanying the SARS-CoV-2 assay; type: cell-based; details: cell viability assay of the SARS-CoV-2 test
Description: (§2) The assay for viral replication (YFP) and the cell viability assay has been described in general in Pathogens 2021; 10:1076 and applied to compounds of the present invention furnished the following results: […]

SARS-CoV-2 = assay: Antiviral activity on SARS-CoV-2, viral replication (YFP) assay; type: cell-based; details: Severe acute respiratory syndrome coronavirus 2, read-out: EC50 range
Description: as §2

[3] = Mouse pharmacokinetics, oral or intravenous cassette dosing; type: in vivo, mice (C57BL/6J); details: C57BL/6J, whole blood, 3 female mice, 5 mg/kg oral cassette, sampling 0.25-8 h; for AUC(0-t): read-out: AUC0-8 h
Method: The pharmacokinetics of the compounds of the present invention was evaluated in 3 male and 3 female mice (C57BL/6J, 8 week old) after oral or intravenous cassette dosing to assess the oral bioavailability. Dose was 5 mg/kg (oral) and 1 mg/kg (intravenous), application volume was 5 mL/kg (oral) and 0.5 mL/kg (intravenous), vehicle was 5% solutol, 95% NaCl solution (at 0.9% saline concentration) for oral and 5% solutol, 5% Ethanol, 90% NaCl solution (at 0.9% saline concentration) for intravenous. At each designated time point (0.25, 0.5, 1, 2, 4, 8 and 24 h after dosing), 20 μL whole blood were collected from the tail vein into Li-heparin tubes, frozen on dry ice within 1-2 minutes of sampling and stored at −20° C. until processed for LC-MS analysis. The obtained data is as follows:
(§3) The pharmacokinetics of additional compounds of the present invention was evaluated in 3 female mice (C57BL/6J, 8 week old) after oral cassette dosing. Dose was 5 mg/kg, application volume was 5 mL/kg, vehicle was 5% solutol, 95% NaCl solution (at 0.9% saline concentration). At each designated time point (0.5, 1, 2, 4, 8 and 24 h after dosing), 20 μL whole blood were collected from the tail vein into Li-heparin tubes, frozen on dry ice within 1-2 minutes of sampling and stored at −20° C. until processed for LC-MS analysis. The obtained data is as follows:
as §3, with “(0.25, 0.5,” for “(0.5,”, “4 and” for “4,”, “8” for “8 and 24”, “analysis.” for “analysis. The obtained data is as follows:”

**Q.** Which microsomal CLint [1] does the source give for CC(O)Cn1ncc(-c2onc(-c3c(F)cccc3Cl)c2-c2ncccn2)c1C(F)(F)F (stereo not shown) [Comparative Example C1/2, reference compound] here?
**A.** 15.7 µL/min/mg

**Q.** For [2H]C(C)(O)C([2H])([2H])n1ncc(-c2onc(-c3c(F)cccc3Cl)c2-c2ncccn2)c1C(F)(F)F (stereo not shown) [Example 1/1, 1-(4-(3-(2-Chloro-6-fluorophenyl)-4-(pyrimidin-2-yl)isoxazol-5-yl)-5-(trifluoromethyl)-1H-pyrazol-1-yl)propan-1,1,2-d3-2-ol], which IC50 (RORγt) is on record?
**A.** 10 to 100 nM

**Q.** And the microsomal CLint [1]?
**A.** 7.8 µL/min/mg

**Q.** For [2H]C(C)(O)Cn1ncc(-c2onc(-c3c(F)cccc3Cl)c2-c2ncccn2)c1C(F)(F)F (stereo not shown) [Comparative Example C1/1, reference compound], which microsomal CLint [1] is on record?
**A.** 10.5 µL/min/mg

**Q.** Which IC50 (RORγt) does the source give for [2H]C([2H])(OC([2H])(C([2H])([2H])[2H])C([2H])([2H])[2H])c1c(-c2c(F)cccc2Cl)noc1-c1cnn(-c2cccc(Cl)c2)c1C(F)(F)F [Example 102/2] here?
**A.** < 10 nM

**Q.** And the CC50 [2]?
**A.** > 100000 nM

**Q.** What about the EC50 (SARS-CoV-2) of the same compound?
**A.** < 100 nM

**Q.** And the Cmax [3]?
**A.** 112 ng/mL

**Q.** What about the half-life [3] of the same compound?
**A.** 2.8 h

**Q.** What about the AUC(0-t) [3] of the same compound?
**A.** 280 ng·h/mL

**Q.** What does the source list for [2H]C([2H])(CC(C)(C)O)n1ncc(-c2onc(-c3c(F)cccc3Cl)c2-c2nccs2)c1C(F)(F)F [Example 3-1]?
**A.** IC50 (RORγt): < 10 nM; CC50 [2]: 17000 nM; EC50 (SARS-CoV-2): < 100 nM

**Q.** Which results are given for [2H]C([2H])(OC1CC1)c1c(-c2c(F)cccc2Cl)noc1-c1cnn(C([2H])([2H])CC(C)(C)O)c1C(F)(F)F [Example 9, 4-(4-(3-(2-Chloro-6-fluorophenyl)-4-(cyclopropoxymethyl-d2)isoxazol-5-yl)-5-(trifluoro-methyl)-1H-pyrazol-1-yl)-2-methylbutan-4,4-d2-2-ol]?
**A.** IC50 (RORγt): 10 to 100 nM; CC50 [2]: 18000 nM; EC50 (SARS-CoV-2): 100 to 1000 nM

**Q.** Which IC50 (RORγt) does the source give for [2H]C([2H])(CC(C)(C)O)n1ncc(-c2onc(-c3c(F)cc(OC)cc3Cl)c2-c2ncccn2)c1C(F)(F)F [Example 5, 4-(4-(3-(2-Chloro-6-fluoro-4-methoxyphenyl)-4-(pyrimidin-2-yl)isoxazol-5-yl)-5-(trifluoro-methyl)-1H-pyrazol-1-yl)-2-methylbutan-4,4-d2-2-ol] here?
**A.** 100 to 1000 nM

**Q.** What about the CC50 [2] of the same compound?
**A.** > 100000 nM

**Q.** What about the EC50 (SARS-CoV-2) of the same compound?
**A.** 100 to 1000 nM

**Q.** For [2H]C([2H])([2H])OC(=O)c1c(-c2c(F)cccc2Cl)noc1-c1cnn(C([2H])([2H])CC(C)(C)O)c1C(F)(F)F [Example 7/2, Methyl-d3 3-(2-chloro-6-fluorophenyl)-5-(1-(3-hydroxy-3-methylbutyl-1,1-d2)-5-(tri-fluoromethyl)-1H-pyrazol-4-yl)isoxazole-4-carboxylate], which IC50 (RORγt) is on record?
**A.** 10 to 100 nM

**Q.** And the CC50 [2]?
**A.** 63000 nM

**Q.** What about the EC50 (SARS-CoV-2) of the same compound?
**A.** < 100 nM

**Q.** Which results are given for [2H]C([2H])(OC([2H])([2H])C([2H])([2H])[2H])c1c(-c2c(F)cccc2Cl)noc1-c1cnn(-c2cccc(Cl)c2)c1C(F)(F)F [Example 110/1]?
**A.** IC50 (RORγt): 10 to 100 nM; CC50 [2]: > 100000 nM; EC50 (SARS-CoV-2): < 100 nM

**Q.** For [2H]C([2H])([2H])c1c(-c2onc(-c3c(F)cccc3Cl)c2-c2ncccn2)cnn1C([2H])([2H])CC(C)(C)O [Example 10/1], which IC50 (RORγt) is on record?
**A.** 100 to 1000 nM

**Q.** And the CC50 [2]?
**A.** > 100000 nM

**Q.** And the EC50 (SARS-CoV-2)?
**A.** 100 to 1000 nM

**Q.** Which IC50 (RORγt) does the source give for [2H]C([2H])(OC(C)C)c1c(-c2c(F)cccc2Cl)noc1-c1cnn(-c2cccc(Cl)c2)c1C(F)(F)F [Example 102/1] here?
**A.** < 10 nM

**Q.** And the CC50 [2]?
**A.** > 100000 nM

**Q.** What about the EC50 (SARS-CoV-2) of the same compound?
**A.** < 100 nM

**Q.** And the Cmax [3]?
**A.** 922 ng/mL

**Q.** What about the half-life [3] of the same compound?
**A.** 2.6 h

**Q.** What about the AUC(0-t) [3] of the same compound?
**A.** 2350 ng·h/mL
